Measured values reported in PubChem BioAssay AID179 (DTP/NCI, 2004).
Where “and” joins values, the source holds several entries; their conditions need not be identical. Equal entries are not always repeated. Calls of active or inactive are those of the source.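 The calls were made as follows: active = compounds giving half or more protection of infected cells from virus-caused growth loss, again on retest; inactive = the rest.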

Test system: CEM cells HIV-1 protection, formazan growth assay
Assay: NCI AIDS Antiviral Assay
Settings: for IC50: measured here: growth of uninfected CEM cells
Summary of the method: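 Category rules: moderately active means at least 50% protection on retest, and confirmed active means 100% protection reproducibly. The underlying data came from a formazan growth assay in HIV-1-infected CEM cells.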

Row | Compound | outcome | EC50 | IC50
1 | O=[As]O | inactive |  | 
2 | Cc1coc(NS(=O)(=O)c2ccc(N=Nc3c(N)n(C)c(=O)n(C)c3=O)cc2)c1C | inactive |  | 
3 | Cn1nnn2c(-c3ccccc3)nnc12 |  | > 891 µM | > 891 µM
4 | O=c1[nH]c2ccccc2c(O)c1-c1ccccc1 |  | > 200 µM | > 200 µM
5 | CN1C(=O)C2(Cc3cn(C45CC67SSC(CO)(C(=O)N6C4Nc4ccccc45)N(C)C7=O)c4ccccc34)SSC1(CO)C(=O)N2C (stereo unspecified) |  | > 0.2 µM | 0.00661 µM
6 | OCCNc1nc(Cl)nc(Cl)n1 |  | > 200 µM | > 200 µM
7 | C(=Nc1cnc2ccccc2c1)c1ccc2ccccc2n1 |  | > 35.5 µM | 19.1 µM
8 | N#CC(C(=O)C(=O)Nc1ccc(Cl)cc1)c1ccccc1 (stereo unspecified) | inactive |  | 
9 | CNc1cc(OCc2ccccc2)c(OC)cc1C(=O)N1CCC[C@H]1CO |  | > 200 µM | 42.7 µM
10 | CCOC(=O)/C=C/n1c2ccccc2c(=O)c2cc(OC)ccc21 |  | > 22.4 µM | > 22.4 µM
11 | N#Cc1n[nH]c2nc(=S)sc(N)c12 |  | > 1200 µM | 891 µM
12 | O=C(O)c1cccc(Nc2c(C(=O)O)cccc2[N+](=O)[O-])c1 |  | > 200 µM | 6.31 µM
13 | O=C(NC1CCCCCC1)C1C(=O)N(C2CCCCCC2)C(=O)/C1=N\O (stereo unspecified) | inactive |  | 
14 | CC(C)COC(=O)N1N=NC2C3OC(CC3=O)C21 (stereo unspecified) |  | > 977 µM | > 977 µM
15 | O=C1NNC2CCCCC2O1 (stereo unspecified) |  | > 1150 µM | > 1150 µM
16 | CCOC(=O)c1ccc(CS(=O)(=O)c2ccccc2C(=O)OCC)cc1 |  | > 95.5 µM | > 95.5 µM
17 | CCOP(=O)(OCC)C(C)(C)N(C)/C(F)=N/C(F)(F)F |  | > 200 µM | > 200 µM
18 | CC1=CC2c3c(O)cc(-c4cc5ccc(O)cc5o4)cc3OC3(c4ccc(O)cc4O)Oc4cc(O)ccc4[C@H](C1)C23 (stereo partly specified) |  | > 22.9 µM | 2.04 µM
19 | O=C(c1nc2ccc(Cl)cc2[nH]c1=O)C(O)c1ccc2c(c1)OCO2 (stereo unspecified) |  | > 501 µM | 24.5 µM
20 | CC1C2(C)OC(=N)C(C#N)(C(c3cccc([N+](=O)[O-])c3)O2)C1(C#N)C#N (stereo unspecified) |  | > 200 µM | 11.7 µM
21 | C/C(C=O)=C\c1ccc(F)cc1 |  | > 219 µM | > 219 µM
22 | CC(C)=CCc1[nH]c2ccccc2c1C1=C(O)C(=O)C(c2c(CC=C(C)C)[nH]c3ccccc23)=C(O)C1=O |  | > 200 µM | 1.74 µM

Row | Compound | outcome | EC50 | IC50
23 | CN(CCO)CNC(=O)C1=C(O)C2(O)C(=O)C3=C(O)c4c(O)cccc4C(C)(O)C3CC2C(N(C)C)C1=O (stereo unspecified) |  | > 178 µM | > 178 µM
24 | Cc1c2c(cc3c1C(=O)C(=O)C([C@@H](C)CO)=C3O)C(C)(C)CCC2 |  | > 200 µM | 15.1 µM
25 | CCn1c2ccccc2c(=O)c2c(OC)ccc(OC)c21 | inactive |  | 
26 | Cc1ccc(-c2cc(-c3ccco3)c(C#N)c(=O)n2C2OC(OC(=O)c3ccccc3)C(OC(=O)c3ccccc3)C2OC(=O)c2ccccc2)cc1 (stereo unspecified) |  | > 10.2 µM | > 10.2 µM
27 | CC(/C=C/c1ncccc1OCCCCCC(=O)O)=N\NC1=NCCN1 |  | > 69.2 µM | > 69.2 µM
28 | CCOC(=O)C12CC1(C(=O)OCC)C1CCC2C1 (stereo unspecified) |  | > 200 µM | > 200 µM
29 | O=C1C=C2CCC[C@H]3OC(=O)C[C@@]23CC1 | inactive |  | 
30 | COc1ccc(Br)cc1-c1cc(Br)ccc1OC |  | > 200 µM | 12.6 µM
31 | COc1cc(CNC(=O)CCCCCCCCCCSSCCCCCCCCCCC(=O)NCc2ccc(O)c(OC)c2)ccc1O |  | > 200 µM | 
32 | N#CC1(c2ccccc2)CCN(Cc2ccccc2)CC1 |  | > 115 µM | 60.3 µM
33 | CC[C@@]1(O)C(=O)OCc2c1cc1n(c2=O)Cc2cc3c(CN(C)C)c(O)ccc3nc2-1 | inactive |  | 
34 | CC(=O)c1c(N=[N+]=[N-])c2cccc3c2n(c1=O)CCC3 |  | > 200 µM | 30.9 µM
35 | NC(N)=N/N=C/c1c(Cl)nc2n1CCS2 |  | > 200 µM | 102 µM
36 | CCN(CC)CCN.O=c1cccccc1[O-].O=c1cccccc1[O-].[Co+3].[O-][Cl+3]([O-])([O-])[O-] |  | > 200 µM | 2.24 µM
37 | CC(C)(C)N/N=C(\C(=O)Nc1cccc(Cl)c1)C1C(=O)Nc2ccccc2S1=O (stereo unspecified) | inactive |  | 
38 | CC1CC(C)C2=NOS3=C2C1=NO3 (stereo unspecified) |  | > 200 µM | > 100 µM
39 | COc1ccc(N2C(=O)/C(=C\c3ccc(N(CCC#N)CCC#N)cc3)N=C2COc2ccccc2)cc1 |  | > 26.9 µM | > 26.9 µM
40 | CC(C)(C)C1CCC2(N3CCOCC3)C(C#N)CC2C1 (stereo unspecified) |  | > 794 µM | 89.1 µM and > 794 µM
41 | O=C(OC1C(OC(=O)c2cccnc2)C(OC(=O)c2cccnc2)C(OC(=O)c2cccnc2)C(OC(=O)c2cccnc2)C1OC(=O)c1cccnc1)c1cccnc1 (stereo unspecified) |  | > 200 µM | > 200 µM
42 | Cc1ccc(N2C(=O)/C(=C/c3ccc(N(CCC#N)CCC#N)cc3C)N=C2c2cc([N+](=O)[O-])ccc2Cl)cc1 | inactive |  | 
43 | COc1cc(=O)n2c3ccccc3n(C)c2c1C#N |  | > 100 µM | 56.2 µM
44 | CN(C)Cc1cc(N=Nc2ccc(Cl)cc2)ccc1OC(=O)c1ccccc1 |  | > 200 µM | 14.5 µM

Row | Compound | outcome | EC50 | IC50
45 | O=C(CN(c1ccc(S(=O)(=O)O)cc1)c1ccc(S(=O)(=O)O)cc1)Nn1cnc2ccc(S(=O)(=O)N(c3ccc(S(=O)(=O)O)cc3)c3ccc(S(=O)(=O)O)cc3)cc2c1=O |  | > 100 µM | 95.5 µM
46 | COC(=O)[C@@H]1CCCN1CCN1CCC[C@H]1C(=O)OC |  | > 200 µM | > 200 µM
47 | COc1cc(N=Nc2ccccc2)cc(/C=N/NC(N)=S)c1[O-].[CH2-]/[N+](=C\c1cc(N=Nc2ccccc2)cc(OC)c1[O-])NC(N)=S.[O]=[Mo+2]=[O].[O]=[Mo]=[O] |  | > 38.9 µM | 5.25 µM
48 | NC(CS)C(=O)NCCNCCNc1ccc(NCCNCCNC(=O)C(N)CS)c2c1C(=O)c1c(O)ccc(O)c1C2=O (stereo unspecified) |  | > 200 µM | 13.5 µM
49 | O=Cc1ccc(-c2cccc([N+](=O)[O-])c2)s1 |  | > 200 µM | 166 µM
50 | COC(=O)C12OC3CO[Si](C(C)C)(C(C)C)O[Si](C(C)C)(C(C)C)OC3C1Oc1nc(=O)ccn12 (stereo unspecified) |  | > 200 µM | 35.5 µM
51 | O=C1Cn2nc(C(=O)c3ccccc3C#Cc3ccccc3)c(-c3ccccc3)c2-c2ccccc21 |  | > 38.9 µM | > 38.9 µM
52 | COC(=O)c1ccc(/C=C/S(=O)(=O)c2ccccc2)cc1 |  | > 4.79 µM | > 4.79 µM
53 | CSC(=S)OC1C(CO[Si](C)(C)C(C)(C)C)OC2OC(C)(C)OC21 (stereo unspecified) | inactive |  | 
54 | CN1CCC(O)C(CNC23CC4CC(CC(C4)C2)C3)C1 (stereo unspecified) |  | 97.7 µM | 178 µM
55 | CC(=O)NCC1OC2COC(c3ccccc3)OC2C2N=C(c3ccccc3)OC12 (stereo unspecified) | inactive |  | 
56 | O=c1c(Nc2ccccc2)cn(CCOc2ccccc2)c(=O)n1CCOc1ccccc1 |  | > 200 µM | > 200 µM
57 | CC1=C2C3CCCC(C3=O)[C@H](C)C2CC1=O (stereo partly specified) | inactive |  | 
58 | Cc1cc(N=O)ccc1O |  | > 200 µM | 3.63 µM
59 | C=C=C(CCC(=O)c1ccccc1)S(=O)(=O)c1ccccc1 |  | > 200 µM | 11 µM
60 | Cc1cn(C2CC(N=[N+]=[N-])C(COP(=O)(O)OCC3CCC(n4ccc(N)nc4=O)O3)O2)c(=O)[nH]c1=O (stereo unspecified) |  | 0.0468 µM | 20 µM
61 | O=C(CCBr)N1CCN(C(=O)CCBr)CC1 |  | > 708 µM | 9.33 µM
62 | O=c1[nH]n(Cc2ccccc2Cl)c2ccc([N+](=O)[O-])cc12 |  | > 200 µM | 69.2 µM
63 | COC(=O)/C(C#N)=C\NC(=S)C(N)=S |  | > 200 µM | 11.2 µM
64 | Cc1nc2ccccc2nc1CC(=N)c1ccccc1 |  | > 200 µM | 61.7 µM
65 | N/N=c1\c2ccccc2c2ccc3c4ccccc4/c(=N\N)c3c12 |  | > 11.5 µM | > 11.5 µM
66 | CCN1C2=NCCN2S(=O)(=O)c2ccccc21 |  | > 1000 µM | 479 µM

Row | Compound | outcome | EC50 | IC50
67 | Cn1cc(NC(=O)Nc2cc(C(=O)Nc3cc(C(=O)Nc4cc(C(=O)Nc5ccc(S(=O)(=O)O)c6cc(S(=O)(=O)O)ccc56)n(C)c4)n(C)c3)n(C)c2)cc1C(=O)Nc1cc(C(=O)Nc2cc(C(=O)Nc3ccc(S(=O)(=O)O)c4cc(S(=O)(=O)O)ccc34)n(C)c2)n(C)c1 |  | 0.178 µM | 75.9 µM
68 | COc1ccc2c(c1)C(c1ccc3ccccc3c1)OC2=O (stereo unspecified) |  | > 46.8 µM | 7.41 µM
69 | COc1ccc(/C=C2\CN(C)CC3C2=NN(c2ccccc2)C3c2ccc(OC)cc2)cc1 (stereo unspecified) |  | > 200 µM | > 200 µM
70 | O=c1nc2n(cc1/C=C\Br)C1CC(O)C(CO2)O1 (stereo unspecified) | inactive |  | 
71 | CN(C)/N=C1\CC(c2ccccc2)C(C#N)(C#N)C1(C#N)C#N (stereo unspecified) |  | > 200 µM | 5.62 µM
72 | COc1ccc(N2C(=O)/C(=C/c3ccc(N(CCC#N)CCC#N)cc3C)N=C2c2cc([N+](=O)[O-])ccc2Cl)cc1 |  | > 12.6 µM | 3.02 µM
73 | O=[S@](c1ccccc1)[C@@H]1CC2C3CC4C2C4C31 (stereo partly specified) |  | > 537 µM | 324 µM
74 | N#CC(C#N)=Cc1ccccc1Br |  | > 191 µM | 3.31 µM
75 | CCOC(=O)/C=C/C1(CCOC(C)=O)CCCCC1 |  | > 200 µM | 174 µM
76 | O=[N+]([O-])CCc1cccc([N+](=O)[O-])c1 |  | > 1260 µM | > 1260 µM
77 | c1ccc(SC(CCCCC(Sc2ccccc2)Sc2ccccc2)Sc2ccccc2)cc1 | inactive |  | 
78 | NS(=O)(=O)c1ccc(NC(=S)/N=C/c2c(O)c3ccccc3[nH]c2=O)cc1 |  | > 200 µM | > 200 µM
79 | CCOC(=O)c1c(-c2ccccc2)c(OC)cn1C |  | > 200 µM | > 200 µM
80 | O=S(CC1(O)CCCCC1)c1ccccc1 (stereo unspecified) | inactive |  | 
81 | CCOc1ccccc1N1C(=O)C(=O)C(c2nc3ccccc3o2)C(=O)C1=O | inactive |  | 
82 | O=S1(=O)C=Cc2ccccc2CC1 |  | > 1290 µM | 741 µM
83 | CC1(C)CC(=O)C(C=NC(=S)c2ccccc2)=C(O)C1 |  | > 200 µM | > 200 µM
84 | CN(C)c1ccc(C2CC(c3ccc4ccccc4c3O)=NN2)cc1 (stereo unspecified) |  | > 200 µM | 60.3 µM
85 | Oc1ccc(C2SCc3nc4ccccc4n32)cc1 (stereo unspecified) |  | > 26.9 µM | > 26.9 µM
86 | Cc1nc2cc(F)c(F)cc2[nH]c1=O |  | > 200 µM | 174 µM
87 | O=C1CC(c2[nH]nc3ccccc23)C(=O)N1c1ccccc1 (stereo unspecified) | inactive |  | 
